This is an account of results in ChEMBL document CHEMBL1697731, “Cheminformatics analysis of assertions mined from literature that describe drug-induced liver injury in different species” (Chem Res Toxicol, 2010).

The test system of data set [1] is Hepatotoxicity. The experiment in a line: Literature-mined compound from Fourches et al multi-species drug-induced liver injury (DILI) dataset, effect in humans. The settings on record: human.
Data set [2] has as its system Hepatotoxicity. The data set can be described thus: Literature-mined compound from Fourches et al multi-species drug-induced liver injury (DILI) dataset, effect in rodents. The settings on record: rodentia.
In data set [3] the test system is Hepatotoxicity. The data set can be described thus: Literature-mined compound from Fourches et al multi-species drug-induced liver injury (DILI) dataset, effect in non-rodents.

As to `CN1C(C(=O)Nc2ccccn2)=C(O)c2sccc2S1(=O)=O` [TENOXICAM], the results for the Hepatotoxicity result in the data set with Hepatotoxicity [1] (Liver), in the data set on Hepatotoxicity [2] (Liver) and in the data set on Hepatotoxicity [3] (Liver) were “drug-induced liver injury reported”, “no drug-induced liver injury reported” and “no drug-induced liver injury reported”, respectively.
Consider `CN(C/C=C/C#CC(C)(C)C)Cc1cccc2ccccc12` [TERBINAFINE], for which the Hepatotoxicity entry in the data set with Hepatotoxicity [1] is on record as “drug-induced liver injury reported”; with Hepatotoxicity [2], “drug-induced liver injury reported”; with Hepatotoxicity [3], “no drug-induced liver injury reported”.
Consider `CC(C)(C)NCC(O)c1cc(O)cc(O)c1` (stereo unspecified) [TERBUTALINE], for which the Hepatotoxicity entry is “no drug-induced liver injury reported” with Hepatotoxicity [1], “drug-induced liver injury reported” in the data set on Hepatotoxicity [2] and “drug-induced liver injury reported” in the data set with Hepatotoxicity [3].
Turning to `CC(C)(C)c1ccc(C(O)CCCN2CCC(C(O)(c3ccccc3)c3ccccc3)CC2)cc1` (stereo unspecified) [TERFENADINE], the results for the Hepatotoxicity result in the data set on Hepatotoxicity [1], in the data set on Hepatotoxicity [2] and in the data set with Hepatotoxicity [3] were “drug-induced liver injury reported”, “no drug-induced liver injury reported” and “no drug-induced liver injury reported”, respectively.
Regarding `NCCCC[C@H](NC(=O)[C@@H]1CCCN1C(=O)[C@@H]1CSSC[C@H](NC(=O)CNC(=O)CNC(=O)CN)C(=O)N[C@@H](Cc2ccc(O)cc2)C(=O)N[C@@H](Cc2ccccc2)C(=O)N[C@@H](CCC(N)=O)C(=O)N[C@@H](CC(N)=O)C(=O)N1)C(=O)NCC(N)=O` [TERLIPRESSIN], the Hepatotoxicity result is “drug-induced liver injury reported” with Hepatotoxicity [1], “no drug-induced liver injury reported” with Hepatotoxicity [2] and “drug-induced liver injury reported” in the data set on Hepatotoxicity [3].
For `CCCCCCC(=O)O[C@H]1CC[C@H]2[C@@H]3CCC4=CC(=O)CC[C@]4(C)[C@H]3CC[C@]12C` [TESTOSTERONE ENANTHATE], the Hepatotoxicity result with Hepatotoxicity [1] is recorded as “no drug-induced liver injury reported”; with Hepatotoxicity [2], “drug-induced liver injury reported”; with Hepatotoxicity [3], “no drug-induced liver injury reported”.
Consider `CCC(=O)O[C@H]1CC[C@H]2[C@@H]3CCC4=CC(=O)CC[C@]4(C)[C@H]3CC[C@]12C` [TESTOSTERONE PROPIONATE], for which the Hepatotoxicity entry is given as “no drug-induced liver injury reported” in the data set on Hepatotoxicity [1], “drug-induced liver injury reported” in the data set with Hepatotoxicity [2] and “no drug-induced liver injury reported” in the data set on Hepatotoxicity [3].
As to `C[C@]12CC[C@H]3[C@@H](CCC4=CC(=O)CC[C@@]43C)[C@@H]1CC[C@@H]2O` [TESTOSTERONE], the Hepatotoxicity result in the data set on Hepatotoxicity [1], with Hepatotoxicity [2] and in the data set with Hepatotoxicity [3] was “drug-induced liver injury reported” each time.
Turning to `COc1cc2c(cc1OC)C1CC(=O)C(CC(C)C)CN1CC2` (stereo unspecified) [TETRABENAZINE], the Hepatotoxicity result with Hepatotoxicity [1] was “drug-induced liver injury reported”; with Hepatotoxicity [2], “no drug-induced liver injury reported”; in the data set with Hepatotoxicity [3] it was “no drug-induced liver injury reported”.
As to `CCCCNc1ccc(C(=O)OCCN(C)C)cc1` [TETRACAINE], the Hepatotoxicity result in the data set with Hepatotoxicity [1] is “no drug-induced liver injury reported”; in the data set on Hepatotoxicity [2] it was “drug-induced liver injury reported”; in the data set on Hepatotoxicity [3] it was “no drug-induced liver injury reported”.
For the molecule `ClC(Cl)=C(Cl)Cl` [TETRACHLOROETHYLENE], the Hepatotoxicity entry is “drug-induced liver injury reported” in the data set with Hepatotoxicity [1], “drug-induced liver injury reported” in the data set on Hepatotoxicity [2] and “no drug-induced liver injury reported” with Hepatotoxicity [3].
In the case of `CN(C)[C@@H]1C(O)=C(C(N)=O)C(=O)[C@@]2(O)C(O)=C3C(=O)c4c(O)cccc4[C@@](C)(O)[C@H]3C[C@@H]12` [TETRACYCLINE], the Hepatotoxicity entry in the data set with Hepatotoxicity [1], in the data set with Hepatotoxicity [2] and in the data set on Hepatotoxicity [3] was “drug-induced liver injury reported” in each case.
Turning to `COc1ccccc1Oc1c(NS(=O)(=O)c2ccc(C(C)C)cn2)nc(-c2ccnc(-c3nnn[nH]3)c2)nc1OCCO` [TEZOSENTAN], the results for the Hepatotoxicity result with Hepatotoxicity [1], in the data set with Hepatotoxicity [2] and in the data set on Hepatotoxicity [3] were “no drug-induced liver injury reported”, “drug-induced liver injury reported” and “no drug-induced liver injury reported”, respectively.
`O=C1CCC(N2C(=O)c3ccccc3C2=O)C(=O)N1` (stereo unspecified) [THALIDOMIDE]: the figures for the Hepatotoxicity result with Hepatotoxicity [1], with Hepatotoxicity [2] and with Hepatotoxicity [3] were “drug-induced liver injury reported”, “drug-induced liver injury reported” and “no drug-induced liver injury reported”, respectively.
On to `Cn1c(=O)c2[nH]cnc2n(C)c1=O.O` [THEOPHYLLINE], for which the Hepatotoxicity entry with Hepatotoxicity [1], in the data set on Hepatotoxicity [2] and in the data set on Hepatotoxicity [3] was “drug-induced liver injury reported” in each case.
Turning to `c1ccc2[nH]c(-c3cscn3)nc2c1` [THIABENDAZOLE], the Hepatotoxicity entry in the data set with Hepatotoxicity [1], in the data set with Hepatotoxicity [2] and in the data set on Hepatotoxicity [3] was “drug-induced liver injury reported” in each case.
For the molecule `Cc1ncc(C[n+]2csc(CCO)c2C)c(N)n1` [THIAMINE ION], the Hepatotoxicity result was “drug-induced liver injury reported” in the data set with Hepatotoxicity [1] (Liver), “drug-induced liver injury reported” in the data set on Hepatotoxicity [2] (Liver) and “no drug-induced liver injury reported” in the data set on Hepatotoxicity [3] (Liver).
For the molecule `CS(=O)(=O)c1ccc([C@@H](O)[C@@H](CO)NC(=O)C(Cl)Cl)cc1` [THIAMPHENICOL], the Hepatotoxicity result with Hepatotoxicity [1] is reported as “drug-induced liver injury reported”; in the data set on Hepatotoxicity [2], “drug-induced liver injury reported”; in the data set on Hepatotoxicity [3], “no drug-induced liver injury reported”.
As for `CSC[C@H]1C(=O)SC[C@@H](NC(=O)c2nc3ccccc3cc2O)C(=O)NCC(=O)N(C)[C@H]2SSC[C@@H](C(=O)N1C)N(C)C(=O)CNC(=O)[C@H](NC(=O)c1nc3ccccc3cc1O)CSC(=O)[C@H](CSC)N(C)C2=O` [THIOCORALINE], the Hepatotoxicity result with Hepatotoxicity [1] is recorded as “drug-induced liver injury reported”; in the data set on Hepatotoxicity [2], “no drug-induced liver injury reported”; in the data set with Hepatotoxicity [3], “no drug-induced liver injury reported”.
As to `CSc1ccc2c(c1)N(CCC1CCCCN1C)c1ccccc1S2` (stereo unspecified) [THIORIDAZINE], the Hepatotoxicity result is reported as “drug-induced liver injury reported” in the data set on Hepatotoxicity [1], “drug-induced liver injury reported” with Hepatotoxicity [2] and “no drug-induced liver injury reported” with Hepatotoxicity [3].
On to `OCCSCCCCCCCCCCSCCO` [TIADENOL], for which the Hepatotoxicity result in the data set on Hepatotoxicity [1] is given as “no drug-induced liver injury reported”; in the data set with Hepatotoxicity [2], “drug-induced liver injury reported”; in the data set on Hepatotoxicity [3], “no drug-induced liver injury reported”.
With `CC(C(=O)O)c1ccc(C(=O)c2ccccc2)s1` (stereo unspecified) [TIAPROFENIC ACID], the Hepatotoxicity entry with Hepatotoxicity [1] is on record as “no drug-induced liver injury reported”; in the data set on Hepatotoxicity [2], “drug-induced liver injury reported”; with Hepatotoxicity [3], “no drug-induced liver injury reported”.
`NC(=O)c1csc([C@@H]2O[C@H](CO)[C@@H](O)[C@H]2O)n1` [TIAZOFURIN]: the Hepatotoxicity entry in the data set on Hepatotoxicity [1] is “no drug-induced liver injury reported”; in the data set on Hepatotoxicity [2] it was “drug-induced liver injury reported”; in the data set on Hepatotoxicity [3] it was “no drug-induced liver injury reported”.
As to `Clc1ccccc1CN1CCc2sccc2C1` [TICLOPIDINE], the Hepatotoxicity result is on record as “drug-induced liver injury reported” in the data set on Hepatotoxicity [1] (Liver), “drug-induced liver injury reported” in the data set with Hepatotoxicity [2] (Liver) and “no drug-induced liver injury reported” in the data set on Hepatotoxicity [3] (Liver).
`CC(C)(C)NC[C@H](O)COc1nsnc1N1CCOCC1` [TIMOLOL]: the Hepatotoxicity entry in the data set on Hepatotoxicity [1] is “drug-induced liver injury reported”; in the data set on Hepatotoxicity [2] it was “no drug-induced liver injury reported”; with Hepatotoxicity [3] it was “no drug-induced liver injury reported”.
For `CC(S)C(=O)NCC(=O)O` (stereo unspecified) [TIOPRONIN], the Hepatotoxicity entry in the data set with Hepatotoxicity [1] is “drug-induced liver injury reported”; in the data set on Hepatotoxicity [2], “drug-induced liver injury reported”; with Hepatotoxicity [3], “no drug-induced liver injury reported”.
On to `Nc1n[n+]([O-])c2ccccc2[n+]1[O-]` [TIRAPAZAMINE], for which the Hepatotoxicity result in the data set on Hepatotoxicity [1] is “no drug-induced liver injury reported”; with Hepatotoxicity [2], “drug-induced liver injury reported”; in the data set on Hepatotoxicity [3], “no drug-induced liver injury reported”.
Take `O=C(O)Cc1cc(I)c(Oc2ccc(O)c(I)c2)c(I)c1` [TIRATRICOL]: the Hepatotoxicity result with Hepatotoxicity [1] is given as “no drug-induced liver injury reported”; in the data set with Hepatotoxicity [2], “drug-induced liver injury reported”; in the data set with Hepatotoxicity [3] it was “no drug-induced liver injury reported”.
As for `Clc1ccc2nsnc2c1NC1=NCCN1` [TIZANIDINE], the Hepatotoxicity entry is listed as “drug-induced liver injury reported” in the data set on Hepatotoxicity [1] (Liver), “no drug-induced liver injury reported” in the data set on Hepatotoxicity [2] (Liver) and “no drug-induced liver injury reported” with Hepatotoxicity [3] (Liver).
With `NC[C@H]1O[C@H](O[C@H]2[C@H](O)[C@@H](O[C@H]3O[C@H](CO)[C@@H](O)[C@H](N)[C@H]3O)[C@H](N)C[C@@H]2N)[C@H](N)C[C@@H]1O` [TOBRAMYCIN], the Hepatotoxicity entry in the data set on Hepatotoxicity [1] was “no drug-induced liver injury reported”; in the data set on Hepatotoxicity [2], “drug-induced liver injury reported”; in the data set on Hepatotoxicity [3] it was “no drug-induced liver injury reported”.
As for `CC(=O)Oc1c(C)c(C)c2c(c1C)CCC(C)(CCC[C@H](C)CCC[C@H](C)CCCC(C)C)O2` (stereo partly specified) [TOCOPHEROL ACETATE], the Hepatotoxicity entry is recorded as “no drug-induced liver injury reported” in the data set with Hepatotoxicity [1], “drug-induced liver injury reported” in the data set with Hepatotoxicity [2] and “no drug-induced liver injury reported” in the data set with Hepatotoxicity [3].
Regarding `Cc1ccc(S(=O)(=O)NC(=O)NN2CCCCCC2)cc1` [TOLAZAMIDE], the Hepatotoxicity entry in the data set with Hepatotoxicity [1] is recorded as “drug-induced liver injury reported”; in the data set on Hepatotoxicity [2], “drug-induced liver injury reported”; in the data set on Hepatotoxicity [3], “no drug-induced liver injury reported”.
